Measurements as given in US20260116910A1, “POLYCYCLIC COMPOUNDS AND METHODS THEREOF” (HEPAITECH (BEIJING) BIOPHARMA TECHNOLOGY CO., LTD., priority 2021, published 2026).
pEC50: −log10 of the molar value. Like-named read-outs stand apart in the source and are kept apart here.

Legend:
human FXR (NR1H4) = biological target: T1, human FXR (NR1H4) (Homo sapiens, UniProt Q96RI1); assay: Human FXR (NR1H4) agonist assessment, FXRE-NanoLuc reporter in HEK293T cells; assay type: cell-based; settings: for pEC50: read-out: EC50
T1 sequence (Q96RI1 1-476 isoform Q96RI1-1): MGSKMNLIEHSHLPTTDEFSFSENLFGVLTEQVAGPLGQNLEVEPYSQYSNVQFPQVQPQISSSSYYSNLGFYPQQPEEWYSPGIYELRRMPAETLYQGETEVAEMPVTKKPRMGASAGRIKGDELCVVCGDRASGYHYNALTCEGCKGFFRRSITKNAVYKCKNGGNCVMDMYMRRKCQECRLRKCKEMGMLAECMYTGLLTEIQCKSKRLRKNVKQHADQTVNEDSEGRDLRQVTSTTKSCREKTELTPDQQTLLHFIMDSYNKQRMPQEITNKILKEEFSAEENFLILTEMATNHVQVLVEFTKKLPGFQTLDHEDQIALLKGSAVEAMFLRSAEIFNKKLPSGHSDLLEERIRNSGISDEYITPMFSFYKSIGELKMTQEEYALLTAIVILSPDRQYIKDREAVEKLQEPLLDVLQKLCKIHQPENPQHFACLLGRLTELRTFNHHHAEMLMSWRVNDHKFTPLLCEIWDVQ
Outline: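 Read-out was NanoLuc luminescence in culture medium, measured 5 min after adding coelenterazine. Cells were HEK293T stably carrying human FXR and an FXRE reporter, exposed to compound for 24 hr at 37 °C. Vehicle was 0.01% DMSO. EC50 was obtained from sigmoid fits of gradient dilutions.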

MRGPRX4 = MRGPRX4 (Homo sapiens, UniProt Q96LA9); assay: MRGPRX4 activation, Fluo-8 Ca2+ FLIPR assay in HEK293T cells stably expressing MRGPRX4; assay type: cell-based; set-up: key to MRGPRX4 activation, Average / MRGPRX4 activation, Ave.: fluorescence change dF/F0; settings: for EC50: MRGPRX4 activation, Ca2+ fluorescence, no activation in tested range reported as III, read-out: Activity (EC50 μM)
Sequence of MRGPRX4 (Q96LA9 whole entry): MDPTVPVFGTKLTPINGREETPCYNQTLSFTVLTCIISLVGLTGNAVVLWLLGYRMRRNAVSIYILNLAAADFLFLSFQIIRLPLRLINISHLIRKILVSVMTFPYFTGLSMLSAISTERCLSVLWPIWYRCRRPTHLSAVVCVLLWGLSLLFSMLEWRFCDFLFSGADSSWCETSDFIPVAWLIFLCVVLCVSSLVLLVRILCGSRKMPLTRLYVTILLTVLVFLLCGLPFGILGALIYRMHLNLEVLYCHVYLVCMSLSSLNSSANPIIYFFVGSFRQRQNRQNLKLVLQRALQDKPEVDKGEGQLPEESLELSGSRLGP
Outline: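 Response measured as dF/F0: 30 s baseline, then 150 s after compound addition on FLIPR Tetra, in HHBS after 40-60 min room-temperature loading with 2 μM Fluo-8 AM.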

[1] = FXR activation, HEK293T FXRE-NanoLuc reporter, 24 hr

| SMILES | pEC50 (human FXR (NR1H4); [1]) | MRGPRX4 activation, Average (MRGPRX4; E3-9, Conc. (Log[M]) −4.0) | MRGPRX4 activation, Average (MRGPRX4; E3-9, Conc. (Log[M]) −4.5) | MRGPRX4 activation, Average (MRGPRX4; E3-9, Conc. (Log[M]) −5.0) | MRGPRX4 activation, Average (MRGPRX4; E3-9, Conc. (Log[M]) −5.4) | MRGPRX4 activation, Average (MRGPRX4; E3-9, Conc. (Log[M]) −5.9) | EC50 (MRGPRX4) | Efficacy (maximum measured induction of NanoLuc, normalized to CDCA set as 100%) (human FXR (NR1H4); [1]) | Activation (%) (MRGPRX4; second E3-8-1, 4.6 nM, n = 1) | Activation (%) (MRGPRX4; second E3-8-1, 4.6 nM, n = 2) | Activation (%) (MRGPRX4; second E3-8-1, 14 nM, n = 1) | Activation (%) (MRGPRX4; second E3-8-1, 14 nM, n = 2) | Activation (%) (MRGPRX4; second E3-8-1, 41 nM, n = 1) | Activation (%) (MRGPRX4; second E3-8-1, 41 nM, n = 2) | Activation (%) (MRGPRX4; second E3-8-1, 123 nM, n = 1) | Activation (%) (MRGPRX4; second E3-8-1, 123 nM, n = 2) | Activation (%) (MRGPRX4; second E3-8-1, 370 nM, n = 1) | Activation (%) (MRGPRX4; second E3-8-1, 370 nM, n = 2) | Activation (%) (MRGPRX4; second E3-8-1, 1111 nM, n = 1) | Activation (%) (MRGPRX4; second E3-8-1, 1111 nM, n = 2) | also measured |
| --- | --- | --- | --- | --- | --- | --- | --- | --- | --- | --- | --- | --- | --- | --- | --- | --- | --- | --- | --- | --- | --- |
| [2H]C1([2H])CC[C@@]2(C)[C@@H](C1)[C@@H](CC)[C@@H](O)[C@@H]1[C@@H]2CC[C@]2(C)[C@@H]([C@H](C)CCNC(=S)NS(=O)(=O)c3cccs3)CC[C@@H]12 [14-4] | > 6.00 | 0.061 | 0.020 | 0.013 | 0.018 | 0.013 | > 100 µM |  |  |  |  |  |  |  |  |  |  |  |  |  | Efficacy (maximum measured induction of NanoLuc, normalized to CDCA set as 100%) (human FXR (NR1H4)): C (key: A: efficacy >400%; B: 300%<efficacy <=400%; C: 100%<efficacy <=300%; D: efficacy <=100%); MRGPRX4 activation, Average (MRGPRX4; E3-9, Conc. (Log[M]) −6.4): 0.020; MRGPRX4 activation, Average (MRGPRX4; E3-9, Conc. (Log[M]) −6.9): 0.015; MRGPRX4 activation, Average (MRGPRX4; E3-9, Conc. (Log[M]) −7.3): 0.015; MRGPRX4 activation, Average (MRGPRX4; E3-9, Conc. (Log[M]) −7.8): 0.008; MRGPRX4 activation, Average (MRGPRX4; E3-9, Conc. (Log[M]) −8.3): 0.015 |
| CC[C@H]1[C@@H](O)[C@@H]2[C@H](CC[C@]3(C)[C@@H]([C@H](C)COC(=O)NS(=O)(=O)c4ccc(C(C)(C)CF)cc4)CC[C@@H]23)[C@@]2(C)CCCC[C@@H]12 [18-1] | > 6.00 | 0.168 | 0.003 | 0.008 | 0.019 | 0.018 | > 100 µM | A (efficacy >400%) | 3.17% | 2.86% | 2.86% | 3.17% | 2.55% | 3.48% | 2.55% | 3.17% | 3.17% | 3.48% | 2.86% | 2.86% | Activation (%) (MRGPRX4; second E3-8-1, 3333 nM, n = 1): 1.93%; Activation (%) (MRGPRX4; second E3-8-1, 3333 nM, n = 2): 2.55%; Activation (%) (MRGPRX4; second E3-8-1, 10000 nM, n = 1): 2.86%; Activation (%) (MRGPRX4; second E3-8-1, 10000 nM, n = 2): 3.79%; Activation (%) (MRGPRX4; second E3-8-1, 30000 nM, n = 1): 2.24%; Activation (%) (MRGPRX4; second E3-8-1, 30000 nM, n = 2): 2.24% |
| CC[C@H]1[C@@H](O)[C@@H]2[C@H](CC[C@]3(C)[C@@H]([C@H](C)COC(=O)NS(=O)(=O)c4ccc5c(c4)CCC(C)(C)O5)CC[C@@H]23)[C@@]2(C)CCCC[C@@H]12 [18-2] | > 6.00 |  |  |  |  |  | > 100 µM | A (efficacy >400%) | 2.86% | 3.17% | 3.79% | 3.79% | 3.17% | 1.93% | 3.48% | 2.86% | 3.48% | 3.48% | 2.24% | 2.55% | Activation (%) (MRGPRX4; second E3-8-1, 3333 nM, n = 1): 3.17%; Activation (%) (MRGPRX4; second E3-8-1, 3333 nM, n = 2): 1.93%; Activation (%) (MRGPRX4; second E3-8-1, 10000 nM, n = 1): 3.48%; Activation (%) (MRGPRX4; second E3-8-1, 10000 nM, n = 2): 2.24%; Activation (%) (MRGPRX4; second E3-8-1, 30000 nM, n = 1): 4.10%; Activation (%) (MRGPRX4; second E3-8-1, 30000 nM, n = 2): 3.48% |
| CC[C@H]1[C@@H](O)[C@@H]2[C@H](CC[C@]3(C)[C@@H]([C@H](C)COC(=O)NS(=O)(=O)c4ccc(N5CCCCC5)nc4)CC[C@@H]23)[C@@]2(C)CCCC[C@@H]12 [18-3] | > 6.00 | 0.519 | 0.027 | 0.021 | 0.018 | 0.018 | > 100 µM | A (efficacy >400%) | 3.17% | 2.86% | 2.86% | 2.55% | 2.86% | 2.55% | 2.86% | 2.86% | 2.24% | 3.48% | 2.55% | 2.24% | Activation (%) (MRGPRX4; second E3-8-1, 3333 nM, n = 1): 3.17%; Activation (%) (MRGPRX4; second E3-8-1, 3333 nM, n = 2): 2.24%; Activation (%) (MRGPRX4; second E3-8-1, 10000 nM, n = 1): 2.24%; Activation (%) (MRGPRX4; second E3-8-1, 10000 nM, n = 2): 2.86%; Activation (%) (MRGPRX4; second E3-8-1, 30000 nM, n = 1): 1.63%; Activation (%) (MRGPRX4; second E3-8-1, 30000 nM, n = 2): 0.08% |
